Calls of active or inactive are those of the source. The rule behind the calls is not given here. Residues, ends and D or L forms follow the SMILES beside them.
Key:
[1] = biological target: T1, Angiotensin-converting enzyme (Homo sapiens, UniProt P12821); experiment: Binding affinity to ACE (unknown origin) assessed as change in entropy (-TdeltaS) at 800 to 1400 nM by isothermal titration calorimetric analysis; conditions: dose 800-1400 nM
[2] = biological target: T1, Angiotensin-converting enzyme; experiment: Binding affinity to ACE (unknown origin) assessed as change in enthalpy at 800 to 1400 nM by isothermal titration calorimetric analysis; conditions: dose 800-1400 nM
[3] = biological target: T1, Angiotensin-converting enzyme; experiment: Inhibition of ACE (unknown origin) preincubated with compound for 5 mins and measured after 60 mins
[4] = biological target: T1, Angiotensin-converting enzyme; experiment: Binding affinity to ACE (unknown origin) assessed as change in entropy (deltaS) at 800 to 1400 nM by isothermal titration calorimetric analysis; conditions: dose 800-1400 nM
[5] = biological target: T1, Angiotensin-converting enzyme; experiment: Binding affinity to ACE (unknown origin) assessed as change in Gibbs free energy at 800 to 1400 nM by isothermal titration calorimetric analysis; conditions: dose 800-1400 nM
[6] = biological target: T1, Angiotensin-converting enzyme; experiment: Binding affinity to ACE (unknown origin) assessed as dissociation constant by isothermal titration calorimetric analysis
[7] = biological target: T1, Angiotensin-converting enzyme; experiment: Binding affinity to ACE (unknown origin) measured at 20 mins
Rattus norvegicus [8] = experiment: Acute antihypertensive activity in spontaneously hypertensive male Wistar Kyoto rat assessed as reduction in systolic blood pressure at 2.5 mg/kg administered via gavage measured after 4 hrs by tail-artery manometry; assay type: functional
Rattus norvegicus [9] = experiment: Acute antihypertensive activity in spontaneously hypertensive male Wistar Kyoto rat assessed as reduction in diastolic blood pressure at 2.5 mg/kg administered via gavage measured after 6 hrs by tail-artery manometry; assay type: functional
Rattus norvegicus [10] = experiment: Subacute antihypertensive activity in spontaneously hypertensive male Wistar Kyoto rat assessed as reduction in systolic blood pressure at 5 mg/kg administered via gavage and measured after 1 week by tail-artery manometry; assay type: functional, organism-based; conditions: time 1.0 weeks
Rattus norvegicus [11] = experiment: Subacute antihypertensive activity in spontaneously hypertensive male Wistar Kyoto rat assessed as reduction in diastolic blood pressure at 5 mg/kg administered via gavage and measured after 1 week by tail-artery manometry; assay type: functional, organism-based; conditions: time 1.0 weeks
Rattus norvegicus [12] = experiment: Subacute antihypertensive activity in spontaneously hypertensive male Wistar Kyoto rat assessed as reduction in systolic blood pressure at 5 mg/kg administered via gavage for 4 weeks and measured at 22 hrs post dose by tail-artery manometry; assay type: functional
Rattus norvegicus [13] = experiment: Subacute antihypertensive activity in spontaneously hypertensive male Wistar Kyoto rat assessed as reduction in diastolic blood pressure at 5 mg/kg administered via gavage for 4 weeks and measured at 22 hrs post dose by tail-artery manometry; assay type: functional
Rattus norvegicus [14] = experiment: Effect on spontaneously hypertensive male Wistar Kyoto rat assessed as reduction in serum ACE activity by measuring hippuric acid level at 5 mg/kg administered via gavage for 4 weeks and measured at 22 hrs post dose by RP-HPLC analysis; assay type: functional, organism-based
Rattus norvegicus [15] = experiment: Effect on spontaneously hypertensive male Wistar Kyoto rat assessed as reduction in Ang II level in serum at 5 mg/kg administered via gavage for 4 weeks and measured at 22 hrs post dose by ELISA; assay type: functional, organism-based
Rattus norvegicus [16] = experiment: Antihypertensive activity in spontaneously […] male Wistar Kyoto rat assessed as increase in fecal acetic acid level at 5 mg/kg administered via gavage for 4 weeks and measured at 22 hrs post dose by RP-HPLC analysis relative to control; assay type: functional
Rattus norvegicus [17] = experiment: Antihypertensive activity in spontaneously […] male Wistar Kyoto rat assessed as increase in fecal propionic acid level at 5 mg/kg administered via gavage for 4 weeks and measured at 22 hrs post dose by RP-HPLC analysis relative to control; assay type: functional
Rattus norvegicus [18] = experiment: Antihypertensive activity in spontaneously […] male Wistar Kyoto rat assessed as increase in fecal butyric acid level at 5 mg/kg administered via gavage for 4 weeks and measured at 22 hrs post dose by RP-HPLC analysis relative to control; assay type: functional
Rattus norvegicus [19] = species: Rattus norvegicus; experiment: Prevention of gut microbiota dysbiosis in spontaneously hypertensive male Wistar Kyoto rat model assessed as increase in shannon indices; assay type: functional, organism-based
Rattus norvegicus [20] = species: Rattus norvegicus; experiment: Prevention of gut microbiota dysbiosis in spontaneously hypertensive male Wistar Kyoto rat model assessed as increase in simpson indices; assay type: functional, organism-based
Rattus norvegicus [21] = species: Rattus norvegicus; experiment: Prevention of gut microbiota dysbiosis in spontaneously hypertensive male Wistar Kyoto rat model assessed as increase in bacteroidetes abundance; assay type: functional, organism-based
Rattus norvegicus [22] = species: Rattus norvegicus; experiment: Prevention of gut microbiota dysbiosis in spontaneously hypertensive male Wistar Kyoto rat model assessed as decrease in epsilonbacteraeota abundance; assay type: functional, organism-based
Rattus norvegicus [23] = species: Rattus norvegicus; experiment: Prevention of gut microbiota dysbiosis in spontaneously hypertensive male Wistar Kyoto rat model assessed as fold increase in lachnospiraceae abundance; assay type: functional
Rattus norvegicus [24] = species: Rattus norvegicus; experiment: Prevention of gut microbiota dysbiosis in spontaneously hypertensive male Wistar Kyoto rat model assessed as fold increase in rikenellaceae abundance; assay type: functional
Rattus norvegicus [25] = species: Rattus norvegicus; experiment: Prevention of gut microbiota dysbiosis in spontaneously hypertensive male Wistar Kyoto rat model assessed as fold increase in ruminococcaceae abundance; assay type: functional
Rattus norvegicus [26] = species: Rattus norvegicus; experiment: Prevention of gut microbiota dysbiosis in spontaneously hypertensive male Wistar Kyoto rat model assessed as increase in enterobacteriaceae abundance relative to control; assay type: functional
Rattus norvegicus [27] = species: Rattus norvegicus; experiment: Prevention of gut microbiota dysbiosis in spontaneously hypertensive male Wistar Kyoto rat model assessed as fold increase in ruminococcaceae UCG-014 abundance; assay type: functional
Rattus norvegicus [28] = species: Rattus norvegicus; experiment: Prevention of gut microbiota dysbiosis in spontaneously hypertensive male Wistar Kyoto rat model assessed as fold increase in oscillibacter abundance; assay type: functional
Rattus norvegicus [29] = species: Rattus norvegicus; experiment: Prevention of gut microbiota dysbiosis in spontaneously hypertensive male Wistar Kyoto rat model assessed as decrease in parabacteroides abundance relative to control; assay type: functional; parameters: scale not given: the % may be the effect or the level left
Rattus norvegicus [30] = species: Rattus norvegicus; experiment: Prevention of gut microbiota dysbiosis in spontaneously hypertensive male Wistar Kyoto rat model assessed as decrease in streptococcus abundance relative to control; assay type: functional; parameters: scale not given: the % may be the effect or the level left
Rattus norvegicus [31] = species: Rattus norvegicus; experiment: Prevention of gut microbiota dysbiosis in spontaneously hypertensive male Wistar Kyoto rat model assessed as fold increase in roseburia abundance; assay type: functional
Rattus norvegicus [32] = species: Rattus norvegicus; experiment: Prevention of gut microbiota dysbiosis in spontaneously hypertensive male Wistar Kyoto rat model assessed as fold increase in turicibacter abundance; assay type: functional
Rattus norvegicus [33] = experiment: Antihypertensive activity in spontaneously hypertensive male rat assessed as reduction in systolic blood pressure at 5 mg/kg, IG measured after 24 hrs by tail-cuff method; assay type: functional
Rattus norvegicus [34] = experiment: Antihypertensive activity in spontaneously hypertensive male rat assessed as reduction in diastolic blood pressure at 5 mg/kg, IG measured after 24 hrs by tail-cuff method; assay type: functional
[35] = biological target: T1, Angiotensin-converting enzyme; experiment: Inhibition of ACE (unknown origin)
[36] = biological target: T1, Angiotensin-converting enzyme; experiment: Binding affinity to ACE (unknown origin)
[37] = biological target: T1, Angiotensin-converting enzyme; experiment: Binding affinity to ACE (unknown origin) measured within 14 mins
Rattus norvegicus [38] = experiment: Acute antihypertensive activity in spontaneously hypertensive male Wistar Kyoto rat assessed as reduction in systolic blood pressure at 5 mg/kg administered via gavage measured after 2 hrs by tail-artery manometry; assay type: functional
Rattus norvegicus [39] = experiment: Acute antihypertensive activity in spontaneously hypertensive male Wistar Kyoto rat assessed as reduction in diastolic blood pressure at 5 mg/kg administered via gavage measured after 2 hrs by tail-artery manometry; assay type: functional
Rattus norvegicus [40] = experiment: Subacute antihypertensive activity in spontaneously hypertensive male Wistar Kyoto rat assessed as reduction in systolic blood pressure at 2.5 mg/kg administered via gavage for 4 weeks and measured at 22 hrs post dose by tail-artery manometry; assay type: functional
Rattus norvegicus [41] = experiment: Subacute antihypertensive activity in spontaneously hypertensive male Wistar Kyoto rat assessed as reduction in diastolic blood pressure at 2.5 mg/kg administered via gavage for 4 weeks and measured at 22 hrs post dose by tail-artery manometry; assay type: functional
Rattus norvegicus [42] = experiment: Effect on spontaneously hypertensive male Wistar Kyoto rat assessed as reduction in serum ACE activity by measuring hippuric acid level at 2.5 mg/kg administered via gavage for 4 weeks by RP-HPLC analysis; assay type: functional, organism-based
Rattus norvegicus [43] = experiment: Effect on spontaneously hypertensive male Wistar Kyoto rat assessed as reduction in Ang II level in serum at 2.5 mg/kg administered via gavage for 4 weeks by ELISA; assay type: functional, organism-based
Rattus norvegicus [44] = species: Rattus norvegicus; experiment: Prevention of gut microbiota dysbiosis in spontaneously hypertensive male Wistar Kyoto rat model assessed as increase in roseburia abundance; assay type: functional, organism-based

T1 sequence (P12821 whole entry): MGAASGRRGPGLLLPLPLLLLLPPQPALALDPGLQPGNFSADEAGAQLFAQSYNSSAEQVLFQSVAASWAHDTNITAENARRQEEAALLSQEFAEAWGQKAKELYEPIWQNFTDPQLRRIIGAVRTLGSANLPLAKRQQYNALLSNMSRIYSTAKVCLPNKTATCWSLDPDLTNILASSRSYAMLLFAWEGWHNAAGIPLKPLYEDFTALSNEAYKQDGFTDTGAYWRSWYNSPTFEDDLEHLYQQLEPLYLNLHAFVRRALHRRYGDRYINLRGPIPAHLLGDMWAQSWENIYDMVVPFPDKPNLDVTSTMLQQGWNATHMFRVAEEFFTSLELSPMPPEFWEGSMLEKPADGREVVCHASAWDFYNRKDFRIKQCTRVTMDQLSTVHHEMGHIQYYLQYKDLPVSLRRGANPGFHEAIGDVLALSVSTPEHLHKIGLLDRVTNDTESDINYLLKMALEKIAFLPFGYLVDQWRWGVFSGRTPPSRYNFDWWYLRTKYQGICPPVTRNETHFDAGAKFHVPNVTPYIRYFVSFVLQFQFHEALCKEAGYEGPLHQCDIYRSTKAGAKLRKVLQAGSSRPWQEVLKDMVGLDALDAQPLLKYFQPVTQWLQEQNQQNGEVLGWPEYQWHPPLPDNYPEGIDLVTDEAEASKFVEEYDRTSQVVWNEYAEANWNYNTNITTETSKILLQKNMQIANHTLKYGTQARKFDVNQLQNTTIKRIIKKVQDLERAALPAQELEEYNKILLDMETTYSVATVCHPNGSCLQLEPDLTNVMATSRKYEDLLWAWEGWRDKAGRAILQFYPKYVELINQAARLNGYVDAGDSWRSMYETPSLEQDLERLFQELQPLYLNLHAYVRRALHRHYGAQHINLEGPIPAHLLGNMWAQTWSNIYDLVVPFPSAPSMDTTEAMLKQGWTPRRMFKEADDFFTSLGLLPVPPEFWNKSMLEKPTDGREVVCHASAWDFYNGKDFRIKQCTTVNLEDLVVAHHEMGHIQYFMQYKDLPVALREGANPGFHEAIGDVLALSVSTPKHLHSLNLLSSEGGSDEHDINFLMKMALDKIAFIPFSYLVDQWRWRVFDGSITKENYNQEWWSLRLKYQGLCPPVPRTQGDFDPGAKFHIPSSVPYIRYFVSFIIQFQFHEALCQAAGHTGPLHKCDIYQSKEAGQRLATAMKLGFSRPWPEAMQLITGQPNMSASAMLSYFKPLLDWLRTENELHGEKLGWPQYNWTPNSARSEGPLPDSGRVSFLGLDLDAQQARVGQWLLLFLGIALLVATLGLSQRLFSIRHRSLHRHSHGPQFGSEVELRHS

C[C@H](NC(=O)[C@@H](N)CCCCN)C(=O)N[C@@H](CCCCN)C(=O)N[C@@H](Cc1c[nH]c2ccccc12)C(=O)O (H-KAKW-OH)
-TdeltaS [1]: -6.57 kJ/mol
deltaH [2]: -34.8 kJ/mol
IC50 [3]: 2.02 µM
deltaS [4]: 5.28 cal/mol.K
deltaG [5]: -41.3 kJ/mol
Kd [6]: 0.0577 µM
Activity [7]: Active
Activity (Rattus norvegicus [8]): 20 mmHg
Activity (Rattus norvegicus [9]): 18 mmHg
Activity (Rattus norvegicus [10]): Active
Activity (Rattus norvegicus [11]): Active
Activity (Rattus norvegicus [12]): 11 mmHg
Activity (Rattus norvegicus [13]): 12 mmHg
Activity (Rattus norvegicus [14]): Active
Activity (Rattus norvegicus [15]): Active
Activity (Rattus norvegicus [16]): 28%
Activity (Rattus norvegicus [17]): 105%
Activity (Rattus norvegicus [18]): 45%
Activity (Rattus norvegicus [19]): Active
Activity (Rattus norvegicus [20]): Active
Activity (Rattus norvegicus [21]): Active
Activity (Rattus norvegicus [22]): Active
fold change (FC) (Rattus norvegicus [23]): 1.5
fold change (FC) (Rattus norvegicus [24]): 4.4
fold change (FC) (Rattus norvegicus [25]): 4.4
Activity (Rattus norvegicus [26]): 85%
fold change (FC) (Rattus norvegicus [27]): 1.8
fold change (FC) (Rattus norvegicus [28]): 2.6
Activity (Rattus norvegicus [29]): 44%
Activity (Rattus norvegicus [30]): 43%
fold change (FC) (Rattus norvegicus [31]): 2
fold change (FC) (Rattus norvegicus [32]): 2.3

C[C@H](NC(=O)[C@@H](N)CCCCN)C(=O)N1CCC[C@H]1C(=O)N[C@@H](CCCCN)C(=O)O (H-KAPK-OH)
IC50 [3]: 1450 µM

CC(C)C[C@H](NC(=O)[C@H](CO)NC(=O)[C@@H](NC(=O)CNC(=O)CNC(=O)[C@H](Cc1ccc(O)cc1)NC(=O)CNC(=O)[C@@H](N)CCCCN)C(C)C)C(=O)N1CCC[C@H]1C(=O)N[C@@H](CCC(=O)O)C(=O)N[C@@H](Cc1c[nH]c2ccccc12)C(=O)O (H-KGYGGVSLPEW-OH)
Activity (Rattus norvegicus [33]): 20 mmHg
Activity (Rattus norvegicus [34]): 27 mmHg

CC(C)C[C@H](NC(=O)[C@H](Cc1c[nH]c2ccccc12)NC(=O)[C@@H](N)CCCCN)C(=O)N1CCC[C@H]1C(=O)O (H-KWLP-OH)
IC50 [35]: 5 µM

CC(C)C[C@H](N)C(=O)N[C@@H](C)C(=O)N1CCC[C@H]1C(=O)N[C@@H](Cc1ccc(O)cc1)C(=O)N[C@@H](Cc1c[nH]c2ccccc12)C(=O)O (H-LAPYW-OH)
IC50 [36]: 5.42 µM

C[C@H](NC(=O)[C@@H](N)CCCCN)C(=O)N[C@@H](CCCCN)C(=O)O (H-Lys-Ala-Lys-OH)
IC50 [3]: 1860 µM

CC(C)C[C@H](NC(=O)CNC(=O)[C@H](CCC(=O)O)NC(=O)[C@@H]1CCCN1C(=O)[C@@H](N)C(C)C)C(=O)N[C@@H](CC(N)=O)C(=O)N[C@@H](CO)C(=O)N[C@@H](Cc1c[nH]c2ccccc12)C(=O)N1CCC[C@H]1C(=O)N[C@@H](Cc1ccccc1)C(=O)O (H-VPEGLNSWPF-OH)
IC50 [3]: 73.3 µM

CC(C)C[C@H](NC(=O)[C@H](Cc1c[nH]c2ccccc12)NC(=O)[C@H](CCCCN)NC(=O)[C@H](Cc1ccccc1)NC(=O)[C@@H]1CCCN1C(=O)[C@H](CC(N)=O)NC(=O)[C@@H](NC(=O)[C@@H](NC(=O)[C@@H](N)C(C)C)[C@@H](C)O)C(C)C)C(=O)N1CCC[C@H]1C(=O)O (H-VTVNPFKWLP-OH)
IC50 [35]: 5.5 µM

NCCCC[C@H](N[C@@H](CCc1ccccc1)C(=O)O)C(=O)N1CCC[C@H]1C(=O)O [LISINOPRIL ANHYDROUS]
-TdeltaS [1]: -30.2 kJ/mol
deltaH [2]: -13.4 kJ/mol
deltaS [4]: 24.2 cal/mol.K
Activity [37]: Active
Activity (Rattus norvegicus [38]): 33 mmHg
Activity (Rattus norvegicus [39]): 28 mmHg
Activity (Rattus norvegicus [40]): 39 mmHg
Activity (Rattus norvegicus [41]): 32 mmHg
Activity (Rattus norvegicus [42]): Active
Activity (Rattus norvegicus [43]): Active
Activity (Rattus norvegicus [16]): inactive
Activity (Rattus norvegicus [17]): inactive
Activity (Rattus norvegicus [18]): inactive
Activity (Rattus norvegicus [21]): Active
Activity (Rattus norvegicus [22]): Active
Activity (Rattus norvegicus [26]): 76%
Activity (Rattus norvegicus [44]): inactive

Reference: ChEMBL document CHEMBL6177964 (Eur J Med Chem, 2025)
